Test results as given in patent US7906522B2, “2-aminoquinazoline derivatives” (Kyowa Hakko Kirin Co., Ltd, priority 2005, dated 2011).

Target: T1, Activated human p38α (Homo sapiens, UniProt Q16539)
T1 construct: purchased Upstate Biotechnology Inc. 14-251
Experiment: p38MAP kinase inhibition test
Format: biochemical
Settings: at a concentration of 1 μmol/L; substrate myelin basic protein, ATP 20 μmol/L, [γ-32P]ATP; read-out: enzyme inhibitory activity
Method: p38MAP Kinase Inhibition Test
Activated human p38α was purchased from Upstate Biotechnology Inc. (Catalog No. 14-251). P38MAP kinase inhibitory activity was measured by the procedure described below with reference to the method by Whitmarsh A. J. and Davis R. J. [Methods in Enzymology (Method. Enzymol.), vol. 332, p. 319-336 (2001)]. As the substrate to be phosphorylated, a myelin basic protein (Catalog No. 133-13493, Wako Pure Chemical Industries, Ltd.) (20 μg/assay) was used. The reaction was carried out in a solution containing 3-[N-Morpholino]propanesulfonic acid (MOPS) (20 mmol/L, pH 7.2), β-glycerophosphoric acid (Sigma Corp.) (25 mmol/L), ethylenebis(oxyethylenenitrilo)tetraacetic acid (EGTA) (1 mmol/L), […] (Sigma-Aldrich Corp.) (1 mmol/L), dithiothreitol (DTT, Wako Pure Chemical Industries, Ltd.) (1 mmol/L), adenosine 5′-triphosphate (ATP, Sigma Corp.) (20 μmol/L), and MgCl2 (18.75 mmol/L) (total 40 μL/assay). The reaction was started by adding human p38α and [γ-^32P]ATP (1 μCi/assay), and incubation was performed at 30° C. for 15 minutes. The reaction was terminated by adding 4.5% v/v phosphoric acid (10 μL/well). Then, 45 μL of the reaction mixture was adsorbed onto phosphocellulose paper (p81 paper, Code No. 3698023, Whatman International, Maidstone, UK). The phosphocellulose paper was washed with 0.75% v/v phosphoric acid. Then, the radioactivity of the phosphorylated myelin basic protein ([^32P]) remaining on the phosphocellulose paper was measured with a scintillation counter (TRI-CARB2700TR, PerkinElmer, Boston, Mass., USA) using program No. 27 (data mode: cpm, measurement time: 1 min, Background substract: none, energy range measured: LL 0.0-UL 2000) or a scintillation counter (LS6500, BeckmanCoulter, Fullerton, Calif., USA) using program No. 17 (data mode: cpm, measurement time: 1 min, Background substract: none, energy range measured: high). The test compound was dissolved in DMSO before addition.

T1 sequence (Q16539 whole entry): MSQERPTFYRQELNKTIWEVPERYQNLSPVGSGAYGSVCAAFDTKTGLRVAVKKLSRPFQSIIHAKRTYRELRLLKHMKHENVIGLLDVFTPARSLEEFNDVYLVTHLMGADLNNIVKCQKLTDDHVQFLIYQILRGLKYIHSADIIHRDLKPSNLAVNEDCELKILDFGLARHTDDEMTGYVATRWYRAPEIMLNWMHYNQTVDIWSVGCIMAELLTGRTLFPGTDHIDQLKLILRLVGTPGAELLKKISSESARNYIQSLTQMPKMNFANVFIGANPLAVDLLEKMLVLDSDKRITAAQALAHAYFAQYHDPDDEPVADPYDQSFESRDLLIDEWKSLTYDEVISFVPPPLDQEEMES

| inhibition at 1 µM [%] | Compound |
| --- | --- |
| ≥ 50 | CCOC(=O)COc1cc2nc(NC(C)C)ncc2cc1-c1ccccc1Cl [Compound 32, 6-(2-Chlorophenyl)-7-(ethoxycarbonylmethyloxy)-2-isopropylaminoquinazoline] |
| ≥ 50 | CC[C@H](C)Nc1ncc2cc(-c3cc(NC(C)=O)ccc3CO)ccc2n1 [Compound 272, (S)-6-[5-acetylamino-2-(hydroxymethyl)phenyl]-2-(sec-butylamino)quinazoline] |
| ≥ 50 | COc1cc2nc(NC3CCN(S(C)(=O)=O)CC3)ncc2cc1-c1cccc(NC(C)=O)c1 [Compound 238, 6-(3-Acetylaminophenyl)-7-methoxy-2-[1-(methylsulfonyl)piperidin-4-ylamino]quinazoline] |
| ≥ 50 | COc1cc2nc(NC(C)C)ncc2cc1-c1cc(NC(C)=O)ccc1F [Compound 233, 6-(5-Acetylamino-2-fluorophenyl)-2-isopropylamino-7-methoxyquinazoline] |
| ≥ 50 | CC(C)Nc1ncc2cc(C(=O)c3ccc(F)c(F)c3)c(O)cc2n1 [Compound 129, 6-(3,4-Difluorobenzoyl)-7-hydroxy-2-(isopropylamino)quinazoline] |
| ≥ 50 | COc1cc2nc(NC3CCN(S(C)(=O)=O)CC3)ncc2cc1-c1ccccc1Cl [Compound 12, 6-(2-Chlorophenyl)-2-[1-(methylsulfonyl)piperidin-4-ylamino]-7-methoxyquinazoline] |
| ≥ 50 | Cc1ccccc1-c1ccc2nc(NC3CCN(S(C)(=O)=O)CC3)ncc2c1 [Compound 275, 6-(2-Methylphenyl)-2-[1-(methylsulfonyl)piperidin-4-ylamino]quinazoline] |
| ≥ 50 | COc1cc2nc(NC(C)C)ncc2cc1-c1cccc(NC(=O)c2cc3ccccc3[nH]2)c1 [Compound 211, 6-{3-[(1H-indol-2-yl)carbonylamino]phenyl}-2-isopropylamino-7-methoxyquinazoline] |
| ≥ 50 | COc1cc2nc(NC(C)C)ncc2cc1-c1ccco1 [Compound 208, 6-(2-Furyl)-2-isopropylamino-7-methoxyquinazoline] |
| ≥ 50 | CCCC(CCC)Nc1ncc2cc(-c3ccccc3C)c(O)cc2n1 [Compound 174, 7-Hydroxy-6-(2-methylphenyl)-2-(4-heptylamino)quinazoline] |
| ≥ 50 | COc1cc2nc(Nc3c(Cl)cccc3Cl)ncc2cc1-c1ccccc1Cl [Compound 17, 6-(2-Chlorophenyl)-2-(2,6-dichloroanilino)-7-methoxyquinazoline] |
| ≥ 50 | COc1cc2nc(NC(C)C)ncc2cc1-c1cccc(NC(C)=O)c1 [Compound 52, 6-[(3-Acetylamino)phenyl]-2-isopropylamino-7-methoxyquinazoline] |
| ≥ 50 | Cc1ccc(NC(=O)c2ccnc(N3CCOCC3)c2)cc1-c1ccc2nc(NC(C)C)ncc2c1 [Compound 256, 2-Isopropylamino-6-{2-methyl-5-[(2-morpholinopyridin-4-yl)carbonylamino]phenyl}quinazoline] |
| ≥ 50 | COCOc1cc2nc(NC(C)C)ncc2cc1-c1ccccc1Cl [Compound 26, 6-(2-Chlorophenyl)-2-isopropylamino-7-methoxymethyloxyquinazoline] |
| ≥ 50 | CC(=O)c1c(OCC(=O)O)c(-c2ccccc2Cl)cc2cnc(NC(C)C)nc12 [Compound 80, 8-Acetyl-7-(carboxymethyloxy)-6-(2-chlorophenyl)-2-(isopropylamino)quinazoline] |
| ≥ 50 | Cc1ccccc1-c1cc2cnc(N[C@@H](C)C(C)C)nc2cc1O [Compound 173, (S)-2-(3-methyl-2-butylamino)-7-hydroxy-6-(2-methylphenyl)quinazoline] |
| ≥ 50 | COc1cc2nc(NC(C)C)ncc2cc1-c1cccc(NC(=O)c2cccc(F)c2)c1 [Compound 219, 6-{3-[(3-Fluorophenyl)carbonylamino]phenyl}-2-isopropylamino-7-methoxyquinazoline] |
| ≥ 50 | CC(C)Nc1ncc2cc(-c3cccc(NC(=O)c4ccc[nH]4)c3)ccc2n1 [Compound 258, 2-Isopropylamino-6-{3-[(1H-pyrrol-2-yl)carbonylamino]phenyl}quinazoline] |
| ≥ 50 | CON(C)C(=O)c1c(O)c(-c2ccccc2Cl)cc2cnc(NC(C)C)nc12 [Compound 72, 6-(2-Chlorophenyl)-7-hydroxy-2-isopropylamino-8-(N-methoxy-N-methylaminocarbonyl)quinazoline] |

| inhibition at 1 µM [%] | Compound |
| --- | --- |
| ≥ 50 | CC(C)Nc1ncc2cc(-c3ccccc3Cl)c(O)c(-c3ccc(CC(=O)O)cc3)c2n1 [Compound 95, 8-[4-(Carboxymethyl)phenyl]-6-(2-chlorophenyl)-7-hydroxy-2-(isopropylamino)quinazoline] |
| ≥ 50 | CC(C)Nc1ncc2cc(-c3ccccc3Cl)c(O)c(I)c2n1 [Compound 88, 6-(2-Chlorophenyl)-7-hydroxy-8-iodo-2-(isopropylamino)quinazoline] |
| ≥ 50 | COc1c(-c2ccccc2Cl)cc2cnc(NC(C)C)nc2c1C(C)=O [Compound 77, 8-Acetyl-6-(2-chlorophenyl)-2-isopropylamino-7-methoxyquinazoline] |
| ≥ 50 | CC(C)Nc1ncc2cc(C(=O)c3ccccc3F)c(O)cc2n1 [Compound 126, 6-(2-Fluorobenzoyl)-7-hydroxy-2-(isopropylamino)quinazoline] |
| ≥ 50 | CC(C)Nc1ncc2cc(-c3ccccc3Cl)c(OCC(N)=O)cc2n1 [Compound 35, 7-(Carbamoylmethyloxy)-6-(2-chlorophenyl)-2-isopropylaminoquinazoline] |
| ≥ 50 | COc1cc2nc(N[C@H](C)c3ccccc3)ncc2cc1-c1ccccc1Cl [Compound 8, (R)-6-(2-Chlorophenyl)-7-methoxy-2-[(1-phenylethyl)amino]quinazoline] |
| ≥ 50 | COc1c(-c2ccccc2Cl)cc2cnc(NC(C)C)nc2c1/C=C/C(=O)O [Compound 74, 8-[(E)-2-carboxyethenyl]-6-(2-chlorophenyl)-7-methoxy-2-(isopropylamino)quinazoline] |
| ≥ 50 | COc1cc2nc(NC(C)C)ncc2cc1-c1cc(NC(C)=O)ccc1C [Compound 230, 6-(5-Acetylamino-2-methylphenyl)-2-isopropylamino-7-methoxyquinazoline] |
| ≥ 50 | CC(C)Nc1ncc2cc(-c3cccc(NC(=O)c4ccc[nH]4)c3)c(O)cc2n1 [Compound 292, 7-Hydroxy-2-isopropylamino-6-{3-[(1H-pyrrol-2-yl)carbonylamino]phenyl}quinazoline] |
| ≥ 50 | COc1ccccc1C(=O)c1cc2cnc(NC(C)C)nc2cc1O [Compound 122, 7-Hydroxy-2-isopropylamino-6-(2-methoxybenzoyl)quinazoline] |
| ≥ 50 | CC(C)Nc1ncc2cc(C(=O)c3ccccc3)c(O)cc2n1 [Compound 110, 6-Benzoyl-7-hydroxy-2-(isopropylamino)quinazoline] |
| ≥ 50 | COc1cc2nc(NC(C)C)ncc2cc1-c1ccccc1NC(C)=O [Compound 56, 6-[2-(Acetylamino)phenyl]-2-isopropylamino-7-methoxyquinazoline] |
| ≥ 50 | CS(=O)(=O)N1CCC(Nc2ncc3cc(C(=O)c4ccccc4)c(O)cc3n2)CC1 [Compound 136, 6-Benzoyl-7-hydroxy-2-[1-(methylsulfonyl)piperidin-4-ylamino]quinazoline] |
| ≥ 50 | COc1cc2nc(NC(C)C)ncc2cc1-c1ccc(F)cc1C [Compound 206, 6-(4-Fluoro-2-methylphenyl)-2-isopropylamino-7-methoxyquinazoline] |
| ≥ 50 | COc1cc2nc(NC(C)C)ncc2cc1-c1cccc(NC(=O)c2ccncc2)c1 [Compound 215, 2-Isopropylamino-7-methoxy-6-{3-[(4-pyridyl)carbonylamino]phenyl}quinazoline] |
| ≥ 50 | COc1cc2nc(NC3CCN(S(=O)(=O)CC(F)(F)F)CC3)ncc2cc1-c1ccccc1Cl [Compound 14, 6-(2-Chlorophenyl)-7-methoxy-2-[1-(2,2,2-trifluoroethylsulfonyl)piperidin-4-ylamino]quinazoline] |
| ≥ 50 | CCOC(=O)c1oc2c(-c3ccccc3Cl)cc3cnc(NC(C)C)nc3c2c1C [Compound 111, 6-(2-Chlorophenyl)-8-ethoxycarbonyl-2-isopropylamino-9-methylfuro[2,3-h]quinazoline] |
| ≥ 50 | COc1cc2nc(NC(C)C)ncc2cc1-c1cccc(NC(=O)Nc2ccccc2)c1 [Compound 210, 2-Isopropylamino-7-methoxy-6-[3-(3-phenylureido)phenyl]quinazoline] |
